Test results: patent publication US20030022821A1, “Bioactive peptides” (priority 1998, published 2003)
Converted amounts (≈) assume the structure as drawn. Where two headings read alike, the source gives them in different places. Square brackets hold non-standard residues; d marks the D form. Ends that are not written are not given here. Peptide text beside a SMILES is read from it. * marks the point of attachment. Trp(2-Pmc) = Cc1c(C)c(S(=O)(=O)c2[nH]c3ccccc3c2C[C@H](N)C(=O)O)c(C)c2c1OC(C)(C)CC2; Acm = CC(=O)NC*

Key:
[1] = tested on: Staphylococcus aureus ATCC 25923; assay type: cell-based
Description: (§1) The bacterial strains used were: Escherichia coli ATCC 25922 and Staphylococcus aureus ATCC 25923. All strains were stored at −70° C. The bacteria were grown in 2% Bacto Peptone water (Difco 1807-17-4). All tests were performed with bacteria in mid-logarithmic growth phase. Determination of the minimum inhibitory concentration (MIC) of the peptides for bacterial strains were performed in 1% Bacto Peptone water. A standard microdilution technique with an inoculum of 2×10^6 CFU/ml was used. All assays were performed in triplets. Since the peptides are positively charged and therefore could adhere to the plastic wells, we controlled the actual concentration of the peptides in the solution by HPLC. There was no difference between the concentration of the peptides before or after adding the solution to the plastic wells.

[2] = tested on: Escherichia coli ATCC 25922; assay type: cell-based
Description: as §1

Compound	MIC S. aureus ([1]; ATCC 25923)	MIC E. coli ([2]; ATCC 25922)	further results
CSCC[C@H](NC(=O)[C@H](CCCNC(=N)N)NC(=O)[C@H](Cc1c[nH]c2ccccc12)NC(=O)[C@H](CCC(N)=O)NC(=O)[C@H](Cc1c[nH]c2ccccc12)NC(=O)[C@H](CCCNC(=N)N)NC(=O)[C@H](CCCNC(=N)N)NC(=O)[C@H](CSCNC(C)=O)NC(=O)[C@@H](N)CCCCN)C(=O)N[C@@H](CCCCN)C(=O)N[C@@H](CCCCN)C(=O)N[C@@H](CC(C)C)C(=O)NCC(=O)N[C@@H](C)C(=O)O [LFB 18-31] (H-KC(Acm)RRWQWRMKKLGA-OH; N-terminus assumed)			MIC S. aureus ATCC 25923 ([1]; ATCC 25923): 200 mg/L; MIC S. aureus ATCC 25923 ([1]; Table 1, value in brackets): 108 µM; MIC S. aureus ([1]; Table 11): 200 mg/L (≈ 104 µM); MIC E. coli ATCC 25922 ([2]; ATCC 25922): 80 mg/L; MIC E. coli ATCC 25922 ([2]; Table 1, value in brackets): 43 µM; MIC E. coli ([2]; Table 11): 80 mg/L (≈ 41.7 µM)
CSCC[C@H](NC(=O)[C@H](CCCNC(=N)N)NC(=O)[C@H](Cc1c[nH]c2ccccc12)NC(=O)[C@H](CCC(N)=O)NC(=O)[C@H](Cc1c[nH]c2ccccc12)NC(=O)[C@H](CCCNC(=N)N)NC(=O)[C@H](CCCNC(=N)N)NC(=O)[C@@H](N)CSCNC(C)=O)C(=O)N[C@@H](CCCCN)C(=O)N[C@@H](CCCCN)C(=O)N[C@@H](CC(C)C)C(=O)NCC(=O)N[C@@H](C)C(=O)O [LFB 19-31] (H-C(Acm)RRWQWRMKKLGA-OH; N-terminus assumed)	>250 mg/L	200 mg/L (≈ 112 µM)	MIC S. aureus ATCC 25923 ([1]; ATCC 25923): > 250 mg/L; MIC S. aureus ATCC 25923 ([1]; Table 1, value in brackets): > 150 µM; MIC E. coli ATCC 25922 ([2]; ATCC 25922): 200 mg/L; MIC E. coli ATCC 25922 ([2]; Table 1, value in brackets): 120 µM
CSCC[C@H](NC(=O)[C@H](CCCNC(=N)N)NC(=O)[C@H](Cc1c[nH]c2ccccc12)NC(=O)[C@H](CCC(N)=O)NC(=O)[C@H](Cc1c[nH]c2ccccc12)NC(=O)[C@H](CCCNC(=N)N)NC(=O)[C@H](CCCNC(=N)N)NC(=O)[C@H](CSCNC(C)=O)NC(=O)[C@H](C)NC(=O)[C@@H](N)Cc1ccccc1)C(=O)N[C@@H](CCCCN)C(=O)N[C@@H](CCCCN)C(=O)N[C@@H](CC(C)C)C(=O)NCC(=O)N[C@@H](C)C(=O)O [LFB A2] (H-FAC(Acm)RRWQWRMKKLGA-OH)	>200 mg/L	80 mg/L (≈ 39.8 µM)	
CSCC[C@H](NC(=O)[C@H](CCCNC(=N)N)NC(=O)[C@H](Cc1c[nH]c2ccccc12)NC(=O)[C@H](CCC(N)=O)NC(=O)[C@H](Cc1c[nH]c2ccccc12)NC(=O)[C@H](CCCNC(=N)N)NC(=O)[C@H](C)NC(=O)[C@H](CSCNC(C)=O)NC(=O)[C@H](CCCCN)NC(=O)[C@@H](N)Cc1ccccc1)C(=O)N[C@@H](CCCCN)C(=O)N[C@@H](CCCCN)C(=O)N[C@@H](CC(C)C)C(=O)NCC(=O)N[C@@H](C)C(=O)O [LFB A4] (H-FKC(Acm)ARWQWRMKKLGA-OH)	>200 mg/L		
CSCC[C@H](NC(=O)[C@H](C)NC(=O)[C@H](Cc1c[nH]c2ccccc12)NC(=O)[C@H](CCC(N)=O)NC(=O)[C@H](Cc1c[nH]c2ccccc12)NC(=O)[C@H](CCCNC(=N)N)NC(=O)[C@H](CCCNC(=N)N)NC(=O)[C@H](CSCNC(C)=O)NC(=O)[C@H](CCCCN)NC(=O)[C@@H](N)Cc1ccccc1)C(=O)N[C@@H](CCCCN)C(=O)N[C@@H](CCCCN)C(=O)N[C@@H](CC(C)C)C(=O)NCC(=O)N[C@@H](C)C(=O)O [LFB A9] (H-FKC(Acm)RRWQWAMKKLGA-OH)	>200 mg/L	55 mg/L (≈ 27.8 µM)	
CSCC[C@H](NC(=O)[C@H](CCCNC(=N)N)NC(=O)[C@H](Cc1c[nH]c2ccccc12)NC(=O)[C@H](CCC(N)=O)NC(=O)[C@H](Cc1c[nH]c2ccccc12)NC(=O)[C@H](CCCNC(=N)N)NC(=O)[C@H](CCCNC(=N)N)NC(=O)[C@H](CSCNC(C)=O)NC(=O)[C@H](CCCCN)NC(=O)[C@@H](N)Cc1ccccc1)C(=O)N[C@@H](C)C(=O)N[C@@H](CCCCN)C(=O)N[C@@H](CC(C)C)C(=O)NCC(=O)N[C@@H](C)C(=O)O [LFB A11] (H-FKC(Acm)RRWQWRMAKLGA-OH)	>200 mg/L	70 mg/L (≈ 34.9 µM)	
CSCC[C@H](NC(=O)[C@H](CCCNC(=N)N)NC(=O)[C@H](CCCNC(=N)N)NC(=O)[C@H](CCC(N)=O)NC(=O)[C@H](Cc1c[nH]c2ccccc12)NC(=O)[C@H](CCC(N)=O)NC(=O)[C@H](Cc1ccc(O)cc1)NC(=O)[C@H](CSCNC(C)=O)NC(=O)[C@H](CCCCN)NC(=O)[C@@H](N)CO)C(=O)N[C@@H](CCCNC(=N)N)C(=O)N[C@@H](CCCCN)C(=O)N[C@@H](CC(C)C)C(=O)NCC(=O)N[C@@H](C)C(=O)O [Native LFG, SKCYQWQRRMRKLGA] (H-SKC(Acm)YQWQRRMRKLGA-OH; N-terminus assumed)			MIC E. coli ([2]; Table 4): 750 mg/L (≈ 378 µM)

Now from value to compound, other results behind:

MIC S. aureus ([1]; ATCC 25923)	MIC E. coli ([2]; ATCC 25922)	Compound	further results
>200 mg/L	70 mg/L (≈ 35.2 µM)	CSCC[C@H](NC(=O)[C@H](CCCNC(=N)N)NC(=O)[C@H](Cc1c[nH]c2ccccc12)NC(=O)[C@H](CCC(N)=O)NC(=O)[C@H](Cc1c[nH]c2ccccc12)NC(=O)[C@H](CCCNC(=N)N)NC(=O)[C@H](CCCNC(=N)N)NC(=O)[C@H](CSCNC(C)=O)NC(=O)[C@H](CCCCN)NC(=O)[C@H](C)N)C(=O)N[C@@H](CCCCN)C(=O)N[C@@H](CCCCN)C(=O)N[C@@H](CC(C)C)C(=O)NCC(=O)N[C@@H](C)C(=O)O [LFB A1] (H-AKC(Acm)RRWQWRMKKLGA-OH)	
>200 mg/L	120 mg/L (≈ 60.6 µM)	CSCC[C@H](NC(=O)[C@H](CCCNC(=N)N)NC(=O)[C@H](Cc1c[nH]c2ccccc12)NC(=O)[C@H](CCC(N)=O)NC(=O)[C@H](Cc1c[nH]c2ccccc12)NC(=O)[C@H](C)NC(=O)[C@H](CCCNC(=N)N)NC(=O)[C@H](CSCNC(C)=O)NC(=O)[C@H](CCCCN)NC(=O)[C@@H](N)Cc1ccccc1)C(=O)N[C@@H](CCCCN)C(=O)N[C@@H](CCCCN)C(=O)N[C@@H](CC(C)C)C(=O)NCC(=O)N[C@@H](C)C(=O)O [LFB A5] (H-FKC(Acm)RAWQWRMKKLGA-OH)	
17.5 mg/L (≈ 7.89 µM)	25 mg/L (≈ 11.3 µM)	CSCC[C@H](NC(=O)[C@H](CCCNC(=N)N)NC(=O)[C@H](Cc1c(S(=O)(=O)c2c(C)c(C)c3c(c2C)CCC(C)(C)O3)[nH]c2ccccc12)NC(=O)[C@H](CCC(N)=O)NC(=O)[C@H](C)NC(=O)[C@H](CCCNC(=N)N)NC(=O)[C@H](CCCNC(=N)N)NC(=O)[C@H](CSCNC(C)=O)NC(=O)[C@H](CCCCN)NC(=O)[C@@H](N)Cc1ccccc1)C(=O)N[C@@H](CCCCN)C(=O)N[C@@H](CCCCN)C(=O)N[C@@H](CC(C)C)C(=O)NCC(=O)N[C@@H](C)C(=O)O [LFB A6 PMC] (H-FKC(Acm)RRAQ[Trp(2-Pmc)]RMKKLGA-OH)	
>200 mg/L	140 mg/L (≈ 69.8 µM)	CC(=O)NCSC[C@H](NC(=O)[C@H](CCCCN)NC(=O)[C@@H](N)Cc1ccccc1)C(=O)N[C@@H](CCCNC(=N)N)C(=O)N[C@@H](CCCNC(=N)N)C(=O)N[C@@H](Cc1c[nH]c2ccccc12)C(=O)N[C@@H](CCC(N)=O)C(=O)N[C@@H](Cc1c[nH]c2ccccc12)C(=O)N[C@@H](CCCNC(=N)N)C(=O)N[C@@H](C)C(=O)N[C@@H](CCCCN)C(=O)N[C@@H](CCCCN)C(=O)N[C@@H](CC(C)C)C(=O)NCC(=O)N[C@@H](C)C(=O)O [LFB A10] (H-FKC(Acm)RRWQWRAKKLGA-OH)	
>200 mg/L	50 mg/L (≈ 24.9 µM)	CSCC[C@H](NC(=O)[C@H](CCCNC(=N)N)NC(=O)[C@H](Cc1c[nH]c2ccccc12)NC(=O)[C@H](CCC(N)=O)NC(=O)[C@H](Cc1c[nH]c2ccccc12)NC(=O)[C@H](CCCNC(=N)N)NC(=O)[C@H](CCCNC(=N)N)NC(=O)[C@H](CSCNC(C)=O)NC(=O)[C@H](CCCCN)NC(=O)[C@@H](N)Cc1ccccc1)C(=O)N[C@@H](CCCCN)C(=O)N[C@@H](C)C(=O)N[C@@H](CC(C)C)C(=O)NCC(=O)N[C@@H](C)C(=O)O [LFB A12] (H-FKC(Acm)RRWQWRMKALGA-OH)	
>200 mg/L	50 mg/L (≈ 24.7 µM)	CSCC[C@H](NC(=O)[C@H](CCCNC(=N)N)NC(=O)[C@H](Cc1c[nH]c2ccccc12)NC(=O)[C@H](CCC(N)=O)NC(=O)[C@H](Cc1c[nH]c2ccccc12)NC(=O)[C@H](CCCNC(=N)N)NC(=O)[C@H](CCCNC(=N)N)NC(=O)[C@H](CSCNC(C)=O)NC(=O)[C@H](CCCCN)NC(=O)[C@@H](N)Cc1ccccc1)C(=O)N[C@@H](CCCCN)C(=O)N[C@@H](CCCCN)C(=O)N[C@@H](C)C(=O)NCC(=O)N[C@@H](C)C(=O)O [LFB A13] (H-FKC(Acm)RRWQWRMKKAGA-OH)	
25 mg/L (≈ 11.9 µM)	25 mg/L (≈ 11.9 µM)	CSCC[C@H](NC(=O)[C@H](CCCNC(=N)N)NC(=O)[C@H](Cc1c[nH]c2ccccc12)NC(=O)[C@H](CCC(N)=O)NC(=O)[C@H](Cc1ccc(-c2ccccc2)cc1)NC(=O)[C@H](CCCNC(=N)N)NC(=O)[C@H](CCCNC(=N)N)NC(=O)[C@H](CSCNC(C)=O)NC(=O)[C@H](CCCCN)NC(=O)[C@@H](N)Cc1ccccc1)C(=O)N[C@@H](CCCCN)C(=O)N[C@@H](CCCCN)C(=O)N[C@@H](CC(C)C)C(=O)NCC(=O)N[C@@H](C)C(=O)O [LFB Bip6]	
	10 mg/L	RWWRYWR-NH2 [LFM 18-24 R1, 7 W2,3, 6Y5NH2, ARG-TRP-TRP-ARG-TYR-TRP-ARG-CONH2]	MIC E. coli ([2]; Table 14, peptides with a proportion of D amino acids): 10 mg/L
